Values of other authors as cited in patent US20140045801A1, “PRAMIPEXOLE TRANSDERMAL DELIVERY FOR SEVERE HEADACHES” (MYLAN INC., priority 2012, published 2014).

Details: free base; moderate lipophilicity

## CCCN[C@H]1CCc2nc(N)sc2C1 [Pramipexole free base, Pramipexole]
  log P: 2.35
